In US6348456B1, “Method of treating chemical dependency in mammals and a composition therefor” (priority 1994, dated 2002):

Experiment: plasma concentration of ibogaine and its metabolite 12-hydroxy ibogamine over time after ibogaine administration to a human patient
Format: in vivo
Experimental: An amount of ibogaine was administered to a human patient, and the plasma concentration of both ibogaine and a metabolite thereof, 12-hydroxy ibogamine, were observed as a function of time.
FIG. 1 illustrates the result of administering a certain dosage of ibogaine to a human patient, where the plasma concentration of ibogaine is measured over time. In essence, a peak plasma concentration of about 1,100 ng/ml is observed at administration. It is also notable that at about 11 hours after ibogaine administration, plasma concentration of ibogaine diminished to less than 400 ng/ml. After about 24 hours, plasma concentration diminished to less than 200 ng/ml. Thus, ibogaine is rather quickly eliminated by the patient.
By contrast, FIG. 2 illustrates the variation of noribogaine plasma concentration with time as a metabolite from the same ibogaine administration described above. In essence, a peak plasma concentration of noribogaine of about 590 ng/ml was reached only after about 11 hours from administration. Thereafter, even at 24 hours, a plasma concentration of greater than 500 ng/ml was observed.

Compound | plasma concentration of ibogaine (after about 24 hours) | plasma concentration of ibogaine (at about 11 hours after ibogaine administration) | peak plasma concentration of ibogaine (ibogaine administered, (FIG. 1)) | plasma half-life compared with ibogaine (after ibogaine administration) | plasma concentration of noribogaine (at 24 hours, metabolite after ibogaine administration) | time from administration to peak plasma concentration of noribogaine (noribogaine as metabolite after ibogaine administration) | peak plasma concentration of noribogaine (noribogaine as metabolite from the same ibogaine administration (FIG. 2))
CC[C@H]1CC2C[C@H]3c4[nH]c5ccc(OC)cc5c4CCN(C2)C13 [ibogaine, reference compound] | less than 200 ng/ml | less than 400 ng/ml | about 1,100 ng/ml |  |  |  | 
CC[C@H]1C[C@H]2C[C@H]3c4[nH]c5ccc(O)cc5c4CCN(C2)[C@@H]13 [noribogaine, 12-hydroxy ibogamine] |  |  |  | much longer plasma half-life than ibogaine | greater than 500 ng/ml | about 11 hours | about 590 ng/ml
